How the values were obtained:
Assay type in all cases: in vivo
Lindernia pyxidaria [1] = test: Test Example 11: herbicidal effect test by soil treatment in paddy field; conditions: 120 g/10a active ingredient, 14 days after treatment
In short: (§1)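 Puddled paddy soil with N:P:K 17:17:17 fertilizer in Wagner pots; 30 seeds per species sown at 0–1 cm, flooded to about 3 cm, kept in a glass greenhouse. Water-diluted emulsifiable concentrate dripped in immediately after sowing at 120 g a.i. per 10 are. Suppression from dry weight versus untreated at 14 days.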

Scirpus juncoides [2] = test: as above; conditions: 120 g/10a active ingredient, 14 days after treatment
In short: as §1

Monochoria vaginalis [3] = test: as above; conditions: 120 g/10a active ingredient, 14 days after treatment
In short: as §1

Echinochloa crus-galli [4] = test: as above; conditions: 120 g/10a active ingredient, 14 days after treatment
In short: as §1

Lindernia pyxidaria [5] = test: Test Example 12: herbicidal effect test by treatment during growing period in paddy field; conditions: 120 g/10a; treatment seven days after sowing in flooded paddy pot; assessed 14 days after treatment
In short: (§2)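 Puddled, fertilized paddy soil in Wagner pots, sown with 30 seeds per species at 0–1 cm and flooded to ~3 cm in a glass greenhouse. Emulsifiable concentrate dripped into water 7 days after sowing at 120 g a.i. per 10 are. Suppression % from dry weight vs untreated, 14 days post-treatment, two replicates.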

Scirpus juncoides [6] = test: as above; conditions: 120 g/10a; treatment seven days after sowing in flooded paddy pot; assessed 14 days after treatment
In short: as §2

Monochoria vaginalis [7] = test: as above; conditions: 120 g/10a; treatment seven days after sowing in flooded paddy pot; assessed 14 days after treatment
In short: as §2

Echinochloa crus-galli [8] = test: as above; conditions: 120 g/10a; treatment seven days after sowing in flooded paddy pot; assessed 14 days after treatment
In short: as §2

Chenopodium album = test: Test Example 13: herbicidal effect test by soil treatment in upland field; conditions: 120 g/10a, 14 days after treatment
Protocol: (§3) A pot having a size of 36 cm^2 was filled with field soil (alluvial soil) and after mixing the soil of the surface layer of 1 cm with 20 grains of each weed seed of crabgrass, Echinochloa crus-galli, Chenopodium album and Amaranthus viridis, the surface layer was pressed lightly. One day after the sowing, an emulsifiable concentrate prepared according to Formulation Example 15 by using the compound shown in Table 11 below was diluted with water, and the water-diluted formulation was sprayed on the soil surface at a ratio of 100 liter per 10 are. The application rate of the active ingredient, by conversion, corresponded to 120 g per 10 are. Fourteen Days after the formulation treatment, the herbicidal effect was evaluated by the same criteria as in Test Example 11.

Amaranthus viridis = test: as above; conditions: 120 g/10a, 14 days after treatment
Protocol: as §3

crabgrass = test: as above; conditions: 120 g/10a, 14 days after treatment
Protocol: as §3

Echinochloa crus-galli [9] = test: as above; conditions: 120 g/10a, 14 days after treatment
Protocol: as §3

Row | Compound | Weed suppression rate (%) Lindemia pyxidaria (Lindernia pyxidaria [1]) | Weed suppression rate (%) Scirpus juncoides (Scirpus juncoides [2]) | Weed suppression rate (%) Monochoria vaginalis (Monochoria vaginalis [3]) | Weed suppression rate (%) Echinochloa crus-galli (Echinochloa crus-galli [4]) | Weed suppression rate (%) Lindemia pyxidaria (Lindernia pyxidaria [5]) | Weed suppression rate (%) Scirpus juncoides (Scirpus juncoides [6]) | Weed suppression rate (%) Monochoria vaginalis (Monochoria vaginalis [7]) | Weed suppression rate (%) Echinochloa crus-galli (Echinochloa crus-galli [8]) | herbicidal effect, Chenopodium album (Chenopodium album) | herbicidal effect, Amaranthus viridis (Amaranthus viridis) | herbicidal effect, Crabgrass (crabgrass) | herbicidal effect, Echinochloa crus-galli (Echinochloa crus-galli [9])
1 | Cc1cc(F)ccc1N(C(=O)n1cnn(S(=O)(=O)c2ccc(F)cc2)c1=O)C(C)C [Compound 11-488] | 100% | 100% | 80% | 100% | 100% | 80% | 100% | 100% | 60% | 60% | 70% | 60%
2 | CC(C)N(C(=O)n1cnn(S(=O)(=O)c2cccc(Cl)c2)c1=O)c1ccc(F)cc1F [Compound 11-550] | 90% | 80% | 80% | 90% | 90% | 80% | 90% | 70% | 0% | 0% | 90% | 90%
3 | CC(C)N(C(=O)n1cnn(S(=O)(=O)C2CCCCC2)c1=O)c1ccccc1F [Compound 11-284] | 100% | 100% | 100% | 100% | 100% | 90% | 100% | 100% | 80% | 90% | 90% | 80%
4 | CC(C)N(C(=O)n1cnn(S(=O)(=O)c2cccs2)c1=O)c1cccc(F)c1F [Compound 11-1021] | 100% | 100% | 100% | 100% | 80% | 100% | 90% | 100% | 70% | 70% | 100% | 90%
5 | Cc1ccc(N(C(=O)n2cnn(S(=O)(=O)C3CCCCC3)c2=O)C(C)C)c(F)c1 [Compound 11-308] | 90% | 90% | 90% | 90% | 80% | 90% | 80% | 90% | 80% | 90% | 90% | 80%
6 | CC(C)N(C(=O)n1cnn(S(=O)(=O)c2ccccc2C(F)(F)F)c1=O)c1ccc(F)cc1F [Compound 11-711] | 90% | 90% | 90% | 90% | 70% | 60% | 70% | 60% | 50% | 50% | 90% | 100%
7 | CC(C)N(C(=O)n1cnn(S(=O)(=O)c2cccs2)c1=O)c1c(F)cccc1F [Compound 11-1024] | 80% | 80% | 70% | 100% | 80% | 90% | 90% | 100% | 60% | 60% | 100% | 70%
8 | CC(C)N(C(=O)n1cnn(S(=O)(=O)c2ccc(F)cc2)c1=O)c1c(F)cccc1F [Compound 11-477] | 90% | 100% | 70% | 100% | 60% | 70% | 70% | 100% | 70% | 70% | 100% | 100%
9 | CCc1ccc(S(=O)(=O)n2ncn(C(=O)N(CC)CC)c2=O)cc1 [Compound 11-665] | 40% | 40% | 40% | 80% | 60% | 60% | 60% | 90% | 0% | 0% | 80% | 80%
10 | CC(C)N(C(=O)n1cnn(S(=O)(=O)c2ccccc2)c1=O)c1ccc(F)cc1 [Compound 11-358] | 80% | 90% | 80% | 90% | 80% | 90% | 80% | 90% | 80% | 90% | 90% | 80%
11 | CCN(CC)C(=O)n1cnn(S(=O)(=O)c2cccc(Cl)c2)c1=O [Compound 11-538] | 40% | 40% | 40% | 50% | 70% | 70% | 70% | 70% | 40% | 40% | 60% | 80%
12 | Cc1cc(F)ccc1N(C(=O)n1cnn(S(C)(=O)=O)c1=O)C(C)C [Compound 11-25] | 70% | 90% | 60% | 90% | 70% | 100% | 70% | 100% | 30% | 30% | 100% | 80%
13 | Cc1cc(F)ccc1N(C(=O)n1cnn(S(=O)(=O)C2CC2)c1=O)C(C)C [Compound 11-211] | 100% | 90% | 80% | 100% | 80% | 100% | 80% | 100% | 70% | 70% | 100% | 100%
14 | CC(C)N(C(=O)n1cnn(S(=O)(=O)Cc2ccccc2)c1=O)c1ccc(F)cc1F [Compound 11-944] | 100% | 90% | 100% | 90% | 90% | 90% | 90% | 90% | 0% | 0% | 90% | 90%
